Test results from patent publication US6949522B2, “β-2′- or 3′-halonucleosides” (Pharmasset, Inc., priority 2001, dated 2005).
Like-named read-outs stand apart in the source and are kept apart here.

Tests used:
[1] = system: mitochondrial cytochrome C oxidase subunit II (COXII) gene; format: cell-based, human; conditions: HepG2, 10 μM, 7 days
Text: The Q-RT-PCR technology was also used to evaluate potential mitochondrial γ-DNA polymerase inhibition by the compounds of the present invention in relevant human cells. […] Since active nucleoside compounds in the triphosphate form lack a 3′-OH, thereby stopping virus replication by chain termination, there is a concern that these nucleoside analogues are also substrates for the human DNA polymerase γ, resulting in inhibition of mitochondrial DNA replication and subsequently toxic side effects (11, 19). In an attempt to provide direct quantifiable data on mitochondrial DNA levels intracellular, a Q-PCR technology was designed and relative quantification of COXII DNA levels were calculated using the comparative Ct method. […] Also, in agreement with previous observations, no changes in normalized mitochondrial DNA levels were observed after FIAU and D4T treatment (6, 8, 23).
(§1) Low passage number HepG2 cells, obtained from American Tissue Culture Collection (ATCC, Manassas, Va.) were seeded at 5,000 cells/well in collagen-coated 96-well plates. Test compounds were added to the media to obtain a final concentration of 10 μM. On culture day 7, cellular nucleic acids were prepared by using commercially available columns (RNeasy 96 kit, Qiagen). […] The mitochondrial cytochrome C oxidase subunit II (COXII) gene and the β-actin or rRNA gene were amplified from 5 μL with a multiplex Q-PCR protocol using the suitable primers and probes for both target and reference (designed using the Primer Express software, Applied Biosystems); • for COXII. • sense primer 5′-[…]-3′ (Sequence 7); • probe 5′-TET-[…]-TAMRA-3′ (Sequence 8); and • antisense probe 5′-[…]-3′ (Sequence 9); • for exon 3 of β-actin (GenBank E01094): • sense primer 5′-[…]-3′ (Sequence 10); • probe 5′-6FAM-[…]-TAMRA-3′ (Sequnece 11); and • antisense probe 5′-[…]-3′ (Sequence 12).
(§2) The rRNA gene primers and probes were purchased from Applied Biosystems. Standard curves using 1-log diluted total HepG2 DNA were linear over more than 5 logs. In addition, efficiencies of target (COXII DNA) and reference (β-actin DNA or rRNA) amplification were approximately equal, because the slope of the ΔCt line (Ct β-actin minus Ct mitochondrial) was less than 0.1 (not shown). Since equal amplification efficiencies were obtained for both genes, the comparative cycle threshold (Ct) method was used to investigate potential inhibition of the mitochondrial DNA polymerase γ. The comparative Ct method uses arithmetic formulas in which the amount of target (COXII gene) is normalized to an endogenous reference (β-actin gene or rRNA gene) and is relative to a calibrator (no drug control at day 7). The arithmetic formula for this approach is given by 2-ΔΔCt (User bulletin # 2, Applied Biosystems).
(§3) In order to study the consequences of possible inhibitory effects of these compounds on host DNA polymerases, nuclear and rnitochondrial DNA levels were quantified and compared to no-treatment controls. Cells were incubated for 7 days with 10 μM of each compound, followed by total nucleic acid extractions and multiplex Q-PCR of the rRNA gene and the mitochondrial COXII gene. Nucleic acids from cells exposed to the control compounds were also amplified in multiplex for mitDNA and the β-actin gene. The results are presented in Table 4 using the comparative Ct method.

β-actin gene = format: cell-based, human; conditions: human, 7 days, 10 μM
Protocol: as §1, §2, §3

[2] = system: 3TC-resistant (xxBRU 184V) HIV-1; test: HIV-1 RT-assay on supernatant of acutely infected human PBM cells, strain xxBRU 184V; format: cell-based; conditions: for EC90: human PBM cells, 5 days, RT activity reduced by 90%, read-out: RT-Assay 184V EC90
Protocol: (§4) Human PBM cells (1×10^6 cells/T25 flask) were PHA stimulated for 2 or 3 days, and infected with either a wild type (LAI and xxBRU) or a 3TC-resistant (xxBRU 184V) HIV-1 strain at 100 TCID50, as previously described (27). The culture was kept for 5 days in presence of test compounds at serial 1-log dilutions. Subsequently, human PBM cells were removed from the culture supernatant by centrifugation (10 minutes, 400×g, 4° C.). This clarified supernatant was tested either in the RT-assay, or in the Q-RT-PCR assay.
(§5) Virus particles present in a 1 mL aliquot of culture supernatant were concentrated by high-speed centrifugation (2 hours, 20,000×g, 4° C.). The supernatant was then removed and the virus pellet was dispensed into a 100 μL virus solubilization buffer (VSB: 0.5% Triton X-100; 0.8 M NaCl, 0.5 mM phenylmethylsulfonyl, 20% glycerol, 50 mM Tris.HCl pH 7.8). A 10 μL aliquot of RT-VSB was mixed with 75 μL RT cocktail (60 mM Tris.HCl pH 7.8, 12 mM MgCl2, 6 mM DTT, 6 μg/mL poly (rA)n-oligo (dT)10-12, 1.2 mM dATP, and 80 μCi/mL 3H-TTP) and incubated for 2 hours at 37° C. Subsequently 100 μL of 10% TCA was added, and the total amount of incorporated 3H-TTP was determined.
(§6) HIV-1 present in culture supernatant fluids was quantified by two different methodologies: i) the Q-RT-PCR with read-out in log copies/mL; and ii) the endogenous viral RT assay on cell supernatant with read-out in log counts per minute/mL (CPM/mL). Upon addition of antiviral compounds to the culture media, a dose-related decrease in virus production was observed. Although the two methodologies measured different parameters (viral RNA versus active RT enzyme), results were not markedly different from each other. The HIV-1 Q-RT-PCR results were compared with a previously established cell-based antiviral drug evaluation assay (endogenous HIV-1 RT polymerization activity in cell supematant)(27).

BVDV (strain NADL) = test: BVDV Q-RT-PCR assay in MDBK cells; format: cell-based, bovine viral diarrhea virus; conditions: MDBK cells, 24 hour incubation, viral RNA in supernatant, read-out: BVDV assay Q-PCR EC90
Protocol: Madin-Darby Bovine Kidney (MDBK) cells were maintained in DMEM/F12 supplemented with 10% heat-inactivated horse serum at 37° C. in a humidified, 5% CO2 atmosphere. Cells were seeded in 96-well plates at 5×10^3 cells/wcll and incubated for 1 hour. BVDV (strain NADL) was used to infect the cells in monolayer at MOI 0.02. After 45 minutes of infection, the viral inoculum was removed and the cells were washed twice. Media or media containing test compound was added to these cells, followed by 24 hour incubation. Cell supernatant fluids were collected, clarified by centrifugation (2 minutes, 3,000 g, room temperature) and viral RNA was prepared (QIAamp Viral RNA mini Kit, Qiagen). Viral RNA was detected in real-time RT-PCR.

human PBM cells = test: Toxicity assay (MTS/MTT dye), human PBM cells; conditions: read-out: Cytotoxicity PBM IC50; human PBM cells, 5 days incubation
Protocol: (§7) After a three day-incubation for HepG2, or 5 days for human PBM cells, cell viability and mitochondrial activity were measured in a colorimetric assay using the MTS- or MTT dye method (Promega, Madison, Wis.).

HIV-1 LAI (wild type) [3] = test: HIV-1 Q-RT-PCR assay in human PBM cells, strain LAI; format: cell-based; conditions: 5 days, viral RNA reduced by 90%
Protocol: as §4
(§8) Viral RNA present in the culture supernatant was prepared using commercially available columns (QIAamp Viral RNA mini Kit, Qiagen, Valencia, Calif.). Viral RNA was detected in real-time by monitoring increases in fluorescence signal that resulted from degradation of a quenched fluorescent probe molecule following the hybridization of the probe to the arnplified viral DNA (TaqMan 7700 chemistry, Applied Biosystems, Foster City, Calif.). The TaqMan probe and primers were designed using the Primer Express software (Applied Biosystems); they cover highly conserved sequences complementary to an 81 base pair long fragment from the HIV-1 RT gene between codon 230 and 257 of the group MHIV-1 genome; • probe 5′-6FAM-[…]-TAMRA-3′ (Sequence 1) • sense primer: 5′-[…]-3′ (Sequence 2); and • antisense primer 5′-[…]-3′ (Sequence 3).
(§9) A total of 5 μL RNA was RT-amplified using reagents and conditions as described by the manufacturer (Applied Biosystems). […] Copy numbers were calibrated using the Roche Amplicor HIV-1 Monitor test™ (Roche Diagnostics, Branchburg, N.J.) on a 1-log dilution series of a clinical HIV-1 genotype B isolate (attenuated in vitro to obtain a high viral load). The 10-6 diluted sample became positive at threshold cycle (Ct=PCR cycle threshold where a sample becomes detectable)=35.52, which corresponded to 1,410 copies/mL in the Roche monitor HIV-1 version II assay. When validated over a dynamic range of 3 logs of virus, there was excellent correlation (r2˜1) between the two methodologies. […] Therefore, the currently designed primer and probe set allowed reliable quantification of both clinical samples and HIV-1 in vitro preparations.
as §6

HIV-1 xxBRU (wild type) [4] = test: HIV-1 Q-RT-PCR assay in human PBM cells, strain xxBRU; format: cell-based; conditions: 5 days, viral RNA reduced by 90%
Protocol: as §4, §8, §9, §6

HIV-1 xxBRU (wild type) [5] = test: HIV-1 RT-assay on supernatant of acutely infected human PBM cells, strain xxBRU; format: cell-based; conditions: 5 days, RT activity reduced by 90%
Protocol: as §4, §5, §6

HepG2 = test: Toxicity assay (MTS/MTT dye), HepG2 cells; conditions: for Cytotoxicity HepG2 IC30: HepG2, three day-incubation (Table 1)
Protocol: as §7

HIV-1 LAI (wild type) [6] = test: HIV-1 RT-assay on supernatant of acutely infected human PBM cells, strain LAI; format: cell-based; conditions: 5 days, RT activity reduced by 90%
Protocol: as §4, §5, §6

[7] = system: 3TC-resistant (xxBRU 184V) HIV-1; test: HIV-1 Q-RT-PCR assay in human PBM cells, strain xxBRU 184V; format: cell-based; conditions: for EC90: human PBM cells, 5 days, viral RNA reduced by 90%, read-out: Q-RT-PCR HIV-1 assay 184V EC90
Protocol: as §4, §8, §9, §6

in vitro [8] = conditions: human
Protocol: as §7

in vitro [9] = conditions: human; remark: listed apart in the source
Protocol: as §7

HBV = HBV Q-PCR assay in HepAD38 (AD38) cells; format: cell-based, hepatitis B virus; conditions: AD38 cells, 5-day incubation, HBV DNA in supernatant, read-out: HBV assay Q-PCR EC90
Protocol: The HepAD38 cell line replicates HBV under conditions that can be regulated with tetracycline (12, 15). In the presence of this drug, the cell supernatant is virtually free of viral DNA, but upon the removal of tetracycline from the culture medium, these cells secrete virus-like particle into the supernatant (12). HepAD38 cells were seeded at 5×10^4 cells/well in a 96-well plate in seeding medium (DMEM/F12+10% FBS, 50 μg/mL penicillin, 50 μg/mL streptomycin, 100 μg/mL kanamycin, 400 μg/mL G418, and 0.3 μg/mL tetracycline) and incubated for 2 days at 37° C. in a 5% CO2 humid atmosphere. The seeding media was removed, and cells were washed 3 times with PBS. Cells were then incubated with 200 μL assay medium (DMEM/F12+10% FBS+P/S/K) containing either no compound, test compound, or control drugs at 10 μM. After a 5-day incubation, the cell supernatant was collected and stored at −70° C. until HBV DNA was quantified. HBV DNA was extracted from supernatant using QiaAmp DNA blood Mini kit (Qiagen) and nucleic acids eluted in 200 μL. Viral DNA was detected in Q-PCR. The TaqMan probe and primers were designed using the Primer Express software (Applied Biosystems) and cover highly conserved sequences complementary to the DNA sequences present in HBsAg (24). A total of 5 μL DNA was amplified using reagents and conditions as described by the manufacturer (Applied Biosystems). […]

Compound | RT-Assay FI, fold increase (EC90 HIV-1184V/EC90 HIV-1xxBRU) [2] | EC90 [2] | EC90 (BVDV (strain NADL)) | EC90 (HIV-1 LAI (wild type) [3]) | EC90 (HIV-1 xxBRU (wild type) [4]) | EC90 (HIV-1 xxBRU (wild type) [5]) | Cytotoxicity HepG2 IC30 (HepG2) | EC90 (HIV-1 LAI (wild type) [6]) | Q-RT-PCR HIV-1 assay FI, fold increase (EC90 HIV-1184V/EC90 HIV-1xxBRU) [7] | EC90 [7] | EC90 (HBV) | further results
Nc1nc2c(ncn2COCCO)c(=O)[nH]1 [ACV, 9-(2-hydroxyethoxymethyl)guanine] | – | – | – | – | – | – | – | – | – | – | – | COXIINβ-actin DNA (range) relative to control ([1]; COXII DNA normalized to β-actin DNA, 2-ΔΔCt): 1.45 (1.34-1.52); Average ΔCt ± SD COXII DNA [1]: −0.37 ± 0.08; Average ΔΔCt ± SD COXII-β-actin [1]: −0.54 ± 0.06; Average ΔCt ± SD β-actin DNA (β-actin gene): 0.17 ± 0.01
Nc1nc(=O)n([C@H]2C=C[C@@H](CO)O2)cc1F [D-D4FC, β-D-2′,3′-didehydro-2′3′-dideoxy-5-fluorocytidine, reference compound] | 1.9 | 0.15 µM | > 200 µM | 0.38 µM | 0.22 µM | 0.08 µM | >100 µM | 0.18 µM | 0.97 | 0.21 µM | – | IC50 (human PBM cells): 80 µM; IC50 (HepG2; read-out: Cytotoxicity HepG2 IC50, HepG2, three day-incubation (Table 3)): > 100 µM
NC(=O)c1ncn([C@@H]2O[C@H](CO)[C@@H](O)[C@H]2O)n1 [Ribavirin, 1-β-D-ribofuranosyl-1H-,1,2,4-triazole-3-carboxamide, reference compound] | – | – | – | – | – | – | – | – | – | – | – | EC90 (BVDV (strain NADL); Bovine viral diarrhea virus isolates and strains): 5 µM; IC50 at 5 days (in vitro [8]): > 100 µM; IC50 at 3 days (in vitro [9]): 90 µM; EC90 (HBV; Hepatitis B virus, HePAD38, 120 h): > 100 µM
β-D-2′,3′-didehydro-2′,3.′-dideoxy-3′-fluoro-5-fluoro cytidine [Compound 10-F] | 13.2 | 494 µM | > 200 µM | 36.3 µM | 34.8 µM | 37.5 µM | >100 µM | 34.5 µM | – | > 100 µM | > 100 µM | –
β-L-2′,3′-didehydro-2′,3.′-dideoxy-3′-fluoro-5-fluoro cytidine [Compound 23-F] | 479 | 67 µM | > 200 µM | 0.09 µM | 0.16 µM | 0.14 µM | >100 µM | 0.12 µM | 333 | 53 µM | 68 µM | –
